Laboratory results taken from ChEMBL document CHEMBL5120838, “Synthesis and biological evaluation of geniposide derivatives as inhibitors of hyperuricemia, inflammatory and fibrosis” (Eur J Med Chem, 2022).
Active and inactive are the calls of the source. The rule behind the calls is not given here.

What was measured:
Mus musculus [1] = test: (§1) Renal protective activity against adenine and potassium oxonate-induced hyperuricemia Kunming mouse model assessed as reduction in hyperuricemia-induced renal fibrosis by measuring reduction in collagen-1 expression in kidney at 5 to 20 mg/kg, po administered via gavage for 2 weeks by immunoblot analysis; assay type: functional, organism-based; conditions: dose 5-20 mg/kg
Mus musculus [2] = test: Anti-hyperuricemic activity against adenine and potassium oxonate-induced hyperuricemia Kunming mouse model assessed as reduction in serum uric acid level at 5 mg/kg, po administered via gavage once daily for 4 weeks (reference value: 356.15 +/- 3.31 uM); assay type: functional
Mus musculus [3] = test: as §1, with “alpha-SMA” for “collagen-1”; assay type: functional, organism-based; conditions: dose 5-20 mg/kg
Mus musculus [4] = test: (§2) Nephroprotective activity against adenine and potassium oxonate-induced hyperuricemia Kunming mouse model assessed as reduction in cytoplasmic vacuolation of renal tubular epithelial cells at 20 mg/kg, po administered via gavage and measured after 21 days by hematoxylin-eosin and Masson trichrome staining based optical microscopic analysis; assay type: functional, organism-based; conditions: time 21.0 day
HK-2 [5] = test: Inhibition of epithelial-mesenchymal transition in human HK-2 cells assessed as downregulation of uric acid-induced alpha-SMA protein expression by Western blot analysis; assay type: functional, cell-based; conditions: dose 12.5-100 µM, DDE = dose-dependent effect
Mus musculus [6] = test: as §2, with “connective tissue hyperplasia” for “cytoplasmic vacuolation of renal tubular epithelial cells”; assay type: functional, organism-based; conditions: time 21.0 day
Mus musculus [7] = test: Anti-hyperuricemic activity against adenine and potassium oxonate-induced hyperuricemia Kunming mouse model assessed as blood urea nitrogen level at 20 mg/kg, po administered via gavage once daily for 4 weeks (reference value: 15.25 +/- 1.21 mM); assay type: functional
Mus musculus [8] = test: as §2, with “neutrophils infiltrations” for “cytoplasmic vacuolation of renal tubular epithelial cells”; assay type: functional, organism-based; conditions: time 21.0 day
HK-2 [9] = test: Cytoprotective activity in human HK-2 cells assessed as reduction in uric acid-induced cell remodeling by inverted light microscopic analysis; assay type: functional, cell-based; conditions: dose 12.5-100 µM
Mus musculus [10] = test: as §2, with “tubular-interstitial lesion development” for “cytoplasmic vacuolation of renal tubular epithelial cells”; assay type: functional, organism-based; conditions: time 21.0 day
Mus musculus [11] = test: Anti-hyperuricemic activity against adenine and potassium oxonate-induced hyperuricemia Kunming mouse model assessed as reduction in serum uric acid level at 20 mg/kg, po administered via gavage once daily for 4 weeks (reference value: 356.15 +/- 3.31 uM); assay type: functional
HK-2 [12] = test: Antiinflammatory activity in hyperuricemic human HK-2 cells assessed as reduction in TNF-alpha level at 12.5 to 100 uM; assay type: functional, cell-based; conditions: dose 12.5-100 µM
[13] = Stability in simulated intestinal fluid assessed as parent compound remaining incubated for 4 hrs by HPLC analysis; assay type: ADME; conditions: read-out: Stability
Mus musculus [14] = test: as §2, with “in” for “in cytoplasmic vacuolation of”, “tubule dilation” for “tubular epithelial cells”; assay type: functional, organism-based; conditions: time 21.0 day
Mus musculus [15] = test: Anti-hyperuricemic activity against adenine and potassium oxonate-induced hyperuricemia Kunming mouse model assessed as blood urea nitrogen level at 5 mg/kg, po administered via gavage once daily for 4 weeks (reference value: 15.25 +/- 1.21 mM); assay type: functional
Mus musculus [16] = test: Anti-hyperuricemic activity against adenine and potassium oxonate-induced hyperuricemia Kunming mouse model assessed as blood urea nitrogen level at 20 mg/kg, po administered via gavage once daily for 2 weeks (reference value: 9.88 +/- 1.21 mM); assay type: functional
Mus musculus [17] = test: Renal protective activity against adenine and potassium oxonate-induced hyperuricemia Kunming mouse model assessed as reduction in renal inflammation by measuring reduction in NF-kappaB expression at 5 to 20 mg/kg, po administered via gavage for 2 weeks by Western blot analysis; assay type: functional, organism-based; conditions: dose 5-20 mg/kg
Mus musculus [18] = test: Anti-hyperuricemic activity against adenine and potassium oxonate-induced hyperuricemia Kunming mouse model assessed as reduction in serum creatinine level at 20 mg/kg, po administered via gavage once daily for 2 weeks (reference value: 87.62 +/- 0.67 uM); assay type: functional
Mus musculus [19] = test: Anti-hyperuricemic activity against adenine and potassium oxonate-induced hyperuricemia Kunming mouse model assessed as reduction in creatinine level at 5 mg/kg, po administered via gavage once daily for 4 weeks (reference value: 76.87 +/- 0.67 uM); assay type: functional
HK-2 [20] = test: Inhibition of epithelial-mesenchymal transition in human HK-2 cells assessed as downregulation of uric acid-induced collagen-1 protein expression by Western blot analysis; assay type: functional, cell-based; conditions: dose 12.5-100 µM, DDE = dose-dependent effect
Mus musculus [21] = test: In vivo inhibition of XOD in po dosed adenine and potassium oxonate-induced hyperuricemia Kunming mouse model assessed as reduction in XOD activity in liver administered via gavage once daily for 2 weeks; assay type: functional, organism-based; conditions: dose 5-20 mg/kg, DDE = dose-dependent effect
HK-2 [22] = test: Cytoprotective activity in human HK-2 cells assessed as reduction in uric acid-induced increase in branches and intracellular space by inverted light microscopic analysis; assay type: functional, cell-based; conditions: dose 12.5-100 µM
HK-2 [23] = test: Antiinflammatory activity in hyperuricemic human HK-2 cells assessed as reduction in TGF-beta level at 12.5 to 100 uM; assay type: functional, cell-based; conditions: dose 12.5-100 µM
Mus musculus [24] = test: Renal protective activity against adenine and potassium oxonate-induced hyperuricemia Kunming mouse model assessed as reduction in IL-1beta expression in kidney at 5 to 20 mg/kg, po administered via gavage for 2 weeks by ELISA relative to control; assay type: functional; design: scale not given: the % may be the effect or the level left; conditions: dose 5-20 mg/kg
Mus musculus [25] = test: Anti-hyperuricemic activity against adenine and potassium oxonate-induced hyperuricemia Kunming mouse model assessed as reduction in creatinine level at 10 mg/kg, po administered via gavage once daily for 4 weeks (reference value: 76.87 +/- 0.67 uM); assay type: functional
[26] = molecular target: T1, Xanthine dehydrogenase/oxidase (Bos taurus, UniProt P80457); test: Mixed type inhibition of bovine XOD assessed as decrease in Vmax with increase in Km at upto 20 uM using varying levels of xanthine as substrate by Lineweaver-Burk plot analysis; conditions: cattle
Mus musculus [27] = test: Renal protective activity against adenine and potassium oxonate-induced hyperuricemia Kunming mouse model assessed as reduction in renal inflammation by measuring reduction in TLR4 expression at 5 to 20 mg/kg, po administered via gavage for 2 weeks by Western blot analysis; assay type: functional, organism-based; conditions: dose 5-20 mg/kg
Mus musculus [28] = test: Renal protective activity against po dosed adenine and potassium oxonate-induced hyperuricemia Kunming mouse model assessed as reduction in TGF-beta1 expression in kidney administered via gavage for 2 weeks by immunohistochemical staining based optical microscopic analysis; assay type: functional, organism-based; conditions: dose 5-20 mg/kg, DDE = dose-dependent effect
Mus musculus [29] = test: Renal protective activity against po dosed adenine and potassium oxonate-induced hyperuricemia Kunming mouse model assessed as reduction in urate accumulation in kidney administered via gavage for 2 weeks by polarization microscopic analysis; assay type: functional, organism-based; conditions: dose 5-20 mg/kg, DDE = dose-dependent effect
Mus musculus [30] = test: Renal protective activity against adenine and potassium oxonate-induced hyperuricemia Kunming mouse model assessed as reduction in IL-8 expression in kidney at 5 to 20 mg/kg, po administered via gavage for 2 weeks by ELISA relative to control; assay type: functional; design: scale not given: the % may be the effect or the level left; conditions: dose 5-20 mg/kg
Mus musculus [31] = test: (§3) Renal protective activity against adenine and potassium oxonate-induced hyperuricemia Kunming mouse model assessed as reduction in extracellular matrix protein deposition by measuring interstitial expansion with collagen accumulation at 5 to 20 mg/kg, po administered via gavage for 2 weeks by Masson trichrome staining based optical microscopic analysis; assay type: functional, organism-based; conditions: dose 5-20 mg/kg
Mus musculus [32] = test: Renal protective activity against adenine and potassium oxonate-induced hyperuricemia Kunming mouse model assessed as reduction in renal inflammation by measuring reduction in IkappaBalpha expression at 5 to 20 mg/kg, po administered via gavage for 2 weeks by Western blot analysis; assay type: functional, organism-based; conditions: dose 5-20 mg/kg
HK-2 [33] = test: Antiinflammatory activity in hyperuricemic human HK-2 cells assessed as reduction in IL-1beta level at 12.5 to 100 uM; assay type: functional, cell-based; conditions: dose 12.5-100 µM
Mus musculus [34] = test: as §3, with “hyperuricemia-induced renal fibrosis” for “extracellular matrix protein deposition”, “tubular dilation” for “interstitial expansion”, “epithelial atrophy” for “collagen accumulation”; assay type: functional, organism-based; conditions: dose 5-20 mg/kg
Mus musculus [35] = test: Renal protective activity against adenine and potassium oxonate-induced hyperuricemia Kunming mouse model assessed as reduction in renal inflammation by measuring reduction in TNF-alpha expression at 5 to 20 mg/kg, po administered via gavage for 2 weeks by Western blot analysis; assay type: functional, organism-based; conditions: dose 5-20 mg/kg
Mus musculus [36] = test: Anti-hyperuricemic activity against adenine and potassium oxonate-induced hyperuricemia Kunming mouse model assessed as reduction in serum uric acid level at 10 mg/kg, po administered via gavage once daily for 4 weeks (reference value: 356.15 +/- 3.31 uM); assay type: functional
Mus musculus [37] = test: Anti-hyperuricemic activity against adenine and potassium oxonate-induced hyperuricemia Kunming mouse model assessed as reduction in serum uric acid level at 20 mg/kg, po administered via gavage once daily for 2 weeks (reference value: 318.16 +/- 3.31 uM); assay type: functional
[38] = Stability in simulated gastric fluid assessed as parent compound remaining incubated for 4 hrs by HPLC analysis; assay type: ADME; conditions: read-out: Stability
Mus musculus [39] = test: Anti-hyperuricemic activity against adenine and potassium oxonate-induced hyperuricemia Kunming mouse model assessed as reduction in creatinine level at 20 mg/kg, po administered via gavage once daily for 4 weeks (reference value: 76.87 +/- 0.67 uM); assay type: functional
Mus musculus [40] = test: Renal protective activity against adenine and potassium oxonate-induced hyperuricemia Kunming mouse model assessed as reduction in TNF-alpha expression in kidney at 5 to 20 mg/kg, po administered via gavage for 2 weeks by ELISA; assay type: functional, organism-based; conditions: dose 5-20 mg/kg
Mus musculus [41] = test: as §2, with “appearance” for “reduction in cytoplasmic vacuolation”, “clear” for “renal”, “structures” for “epithelial cells”; assay type: functional, organism-based; conditions: time 21.0 day
[42] = molecular target: T1, Xanthine dehydrogenase/oxidase; test: Inhibition of bovine XOD assessed as inhibition of uric acid formation using xanthine as substrate preincubated with enzyme for 5 mins followed by substrate addition and measured for 30 mins by microplate reader analysis
Mus musculus [43] = test: Anti-hyperuricemic activity against adenine and potassium oxonate-induced hyperuricemia Kunming mouse model assessed as blood urea nitrogen level at 10 mg/kg, po administered via gavage once daily for 4 weeks (reference value: 15.25 +/- 1.21 mM); assay type: functional

T1 sequence (P80457 whole entry): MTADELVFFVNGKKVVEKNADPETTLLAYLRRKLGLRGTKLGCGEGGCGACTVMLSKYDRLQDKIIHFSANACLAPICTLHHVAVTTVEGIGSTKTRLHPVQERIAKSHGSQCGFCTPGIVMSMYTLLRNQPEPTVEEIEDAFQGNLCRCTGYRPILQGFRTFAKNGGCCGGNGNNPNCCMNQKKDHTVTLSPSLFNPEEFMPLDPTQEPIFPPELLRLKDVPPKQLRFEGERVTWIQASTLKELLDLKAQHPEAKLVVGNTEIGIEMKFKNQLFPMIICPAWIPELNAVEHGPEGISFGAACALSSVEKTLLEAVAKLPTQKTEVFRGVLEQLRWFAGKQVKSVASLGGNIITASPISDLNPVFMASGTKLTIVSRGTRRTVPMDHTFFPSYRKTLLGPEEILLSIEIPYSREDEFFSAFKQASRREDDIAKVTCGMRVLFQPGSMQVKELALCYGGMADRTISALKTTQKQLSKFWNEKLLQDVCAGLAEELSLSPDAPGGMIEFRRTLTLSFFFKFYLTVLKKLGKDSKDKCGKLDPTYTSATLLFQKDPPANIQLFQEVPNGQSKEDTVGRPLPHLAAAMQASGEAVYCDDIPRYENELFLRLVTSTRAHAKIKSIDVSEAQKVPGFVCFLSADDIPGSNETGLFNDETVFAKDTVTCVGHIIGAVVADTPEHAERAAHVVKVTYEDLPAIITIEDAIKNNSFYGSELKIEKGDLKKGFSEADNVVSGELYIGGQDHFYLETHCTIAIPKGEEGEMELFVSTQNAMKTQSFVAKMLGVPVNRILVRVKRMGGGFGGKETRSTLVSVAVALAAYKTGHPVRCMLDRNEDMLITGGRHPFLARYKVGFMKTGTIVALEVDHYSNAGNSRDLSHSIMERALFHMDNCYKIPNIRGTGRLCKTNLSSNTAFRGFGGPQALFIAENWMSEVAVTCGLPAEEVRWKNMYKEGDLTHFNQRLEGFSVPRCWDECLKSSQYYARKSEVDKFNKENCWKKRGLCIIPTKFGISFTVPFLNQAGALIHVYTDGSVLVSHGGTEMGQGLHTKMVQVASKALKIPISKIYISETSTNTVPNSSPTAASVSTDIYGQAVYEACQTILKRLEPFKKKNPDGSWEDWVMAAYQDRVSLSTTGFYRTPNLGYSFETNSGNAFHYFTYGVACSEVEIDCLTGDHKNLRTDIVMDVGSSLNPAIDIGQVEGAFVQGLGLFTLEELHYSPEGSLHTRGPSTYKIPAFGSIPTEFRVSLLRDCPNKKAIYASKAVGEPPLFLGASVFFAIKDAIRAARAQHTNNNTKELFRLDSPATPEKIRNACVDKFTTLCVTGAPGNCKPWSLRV

For `CC(=O)OCC1=CC[C@@H]2C(C(=O)Nc3ncco3)=CO[C@@H](O[C@@H]3O[C@H](COC(C)=O)[C@@H](OC(C)=O)[C@H](OC(C)=O)[C@H]3OC(C)=O)[C@H]12`, the Activity (Mus musculus [1]) was “Active”, the Activity (Mus musculus [2]) was 198.27 µM and the Activity (Mus musculus [3]) was “Active”. The Activity (Mus musculus [4]) was “Active”, the inhibition (HK-2 [5]) was “Dde” and the Activity (Mus musculus [6]) was “Active”. For the same compound, the Activity (Mus musculus [7]) was 8.02 mM, the Activity (Mus musculus [8]) was “Active” and the Activity (HK-2 [9]) was “Active”. For the same compound, the Activity (Mus musculus [10]) was “Active”, the Activity (Mus musculus [11]) was 182.66 µM and the Activity (HK-2 [12]) was “Active”. The remaining at 4 h [13] was 53.3%, the Activity (Mus musculus [14]) was “Active” and the Activity (Mus musculus [15]) was 10.05 mM. For the same compound, the Activity (Mus musculus [16]) was 5.62 mM, the Activity (Mus musculus [17]) was “Active” and the Activity (Mus musculus [18]) was 29.08 µM. For the same compound, the Activity (Mus musculus [19]) was 54.79 µM, the inhibition (HK-2 [20]) was “Dde” and the inhibition (Mus musculus [21]) was “Dde”. For the same compound, the Activity (HK-2 [22]) was “Active”, the Activity (HK-2 [23]) was “Active” and the Activity (Mus musculus [24]) was over 50%. For the same compound, the Activity (Mus musculus [25]) was 47.17 µM, the “inhibition (INH)” value [26] was “Active” and the Activity (Mus musculus [27]) was “Active”. For the same compound, the Activity (Mus musculus [28]) was “Dde”, the Activity (Mus musculus [29]) was “Dde” and the Activity (Mus musculus [30]) was over 50%. The Activity (Mus musculus [31]) was “Active”, the Activity (Mus musculus [32]) was “Active” and the Activity (HK-2 [33]) was “Active”. For the same compound, the Activity (Mus musculus [34]) was “Active”, the Activity (Mus musculus [35]) was “Active” and the Activity (Mus musculus [36]) was 188.16 µM. The Activity (Mus musculus [37]) was 235.87 µM, the remaining at 4 h [38] was 47.6% and the Activity (Mus musculus [39]) was 38.81 µM. For the same compound, the Activity (Mus musculus [40]) was “Active”, the Activity (Mus musculus [41]) was “Active” and the IC50 [42] was 1370 nM. For the same compound, the Activity (Mus musculus [43]) was 8.82 mM.
